{
  "source": "patent US8822509B2",
  "about": "“Pain-relieving compositions and uses therefor” (priority 2006, dated 2014)",
  "key": {"[1]": {"test_system": "STZ-diabetic rats", "experiment": "Tolerance development (7-day s.c. infusion, 2-day washout) in STZ-diabetic rats, von Frey PWT", "format": "in vivo"}, "[2]": {"test_system": "tactile (mechanical) allodynia in hindpaws of STZ-diabetic rats", "experiment": "Anti-allodynia by von Frey paw withdrawal thresholds (PWT) in STZ-diabetic rats", "format": "in vivo, Wistar rats", "protocol": "Following this, the jugular cannula was withdrawn, the vein tied off, and the incision sutured. Following surgery, rats received antibiotic prophylaxis in the form of topical dusting powder over the sutured incisions, as well as a subcutaneous injection of benzylpenicillin (60 mg). Rats were placed in individual cages, kept warm and monitored closely during the surgical recovery period. Rats were classified as diabetic if on day 10 post-STZ administration, their daily water intake was ≧100 mL and their corresponding blood glucose levels (BGLs) were ≧15 mM.\nCalibrated von Frey filaments were used to document the time course for the development and maintenance of tactile allodynia (defining symptom of PDN).\nBriefly, baseline PWTs were determined for both hindpaws prior to each antinociceptive testing session in the non-diabetic control group at week 0 as well as in groups of STZ-diabetic rats at 10, 14 and 24 wks.\nThe PWT vs time data were normalized by subtracting the pre-dosing baseline PWT values for each individual rat to obtain ΔPWT values as follows: Normalized (Δ)PWT value=Post-treatment PWT value−PWT value prior to treatment.\nΔPWT versus time curves were then constructed. Trapezoidal integration was used to estimate ΔPWT AUC values for individual rats in the non-diabetic and STZ-diabetic rat treatment groups. ΔPWT AUC versus dose curves were constructed and GraphPad™ Prism was used to estimate the ˜ED50 values."}, "[3]": {"molecular_target": "T1, μ-opioid receptors (MOP receptors) (Mus musculus, UniProt P42866)", "T1 construct": "expressed in transfected cells; host or cells: HEK293", "T1 sequence (P42866 whole entry)": "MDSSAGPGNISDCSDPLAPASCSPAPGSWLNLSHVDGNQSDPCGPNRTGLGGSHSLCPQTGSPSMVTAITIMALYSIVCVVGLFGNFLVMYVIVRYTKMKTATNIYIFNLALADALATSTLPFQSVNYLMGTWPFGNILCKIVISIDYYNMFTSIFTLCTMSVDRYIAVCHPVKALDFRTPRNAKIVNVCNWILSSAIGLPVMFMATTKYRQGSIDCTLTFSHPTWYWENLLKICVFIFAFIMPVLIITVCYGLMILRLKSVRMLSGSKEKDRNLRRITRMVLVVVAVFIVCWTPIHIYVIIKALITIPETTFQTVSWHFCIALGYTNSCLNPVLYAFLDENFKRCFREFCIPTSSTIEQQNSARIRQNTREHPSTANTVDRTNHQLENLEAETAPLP", "format": "cell-based"}, "[4]": {"molecular_target": "T1, μ-opioid receptors (MOP receptors)", "format": "cell-based", "settings": "2% βCD 1 h 37° C.; reversed by βCD-cholesterol complexes", "protocol": "Briefly, HEK-MOP cells were pre-incubated with 2% (2-hydroxypropyl)-β-cyclodextrin (βCD) for 1 h at 37° C. to deplete cholesterol from caveloae in the cell membrane. Cells were washed with DMEM and then utilized in the forskolin-stimulated cAMP assay as described above. […] Cells were washed with DMEM and then utilized in the forskolin-stimulated cAMP assay as described above."}, "[5]": {"molecular_target": "κ-opioid receptors (KOP receptors) (Mus musculus, UniProt P33534)", "sequence (P33534 whole entry)": "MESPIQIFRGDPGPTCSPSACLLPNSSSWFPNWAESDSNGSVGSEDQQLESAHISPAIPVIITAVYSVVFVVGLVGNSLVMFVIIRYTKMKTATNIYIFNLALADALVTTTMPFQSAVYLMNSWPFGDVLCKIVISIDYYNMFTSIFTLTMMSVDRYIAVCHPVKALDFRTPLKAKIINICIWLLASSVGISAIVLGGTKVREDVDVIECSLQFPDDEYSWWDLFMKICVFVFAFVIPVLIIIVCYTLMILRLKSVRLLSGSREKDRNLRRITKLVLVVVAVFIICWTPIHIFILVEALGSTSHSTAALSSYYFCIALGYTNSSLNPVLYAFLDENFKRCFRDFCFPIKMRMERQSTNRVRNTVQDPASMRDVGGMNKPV", "experiment": "Forskolin-stimulated cAMP responses in KOP-transfected HEK293 cells", "settings": "KOP-transfected HEK293, entire concentration range tested", "quoted_text": "(§1) Non-transfected HEK293 cells were used as a control. Transfected HEK293 cells were maintained in Dulbecco's Modified Eagle's Medium (DMEM) supplemented with 10% fetal bovine serum (FBS) and geneticin (1 mg/mL). Non-transfected HEK293 cells were maintained in DMEM supplemented with 10% FBS.\n(§2) The functional interaction between opioids and opioid-like compounds and specific opioid G-protein-coupled receptors (GPCRs) was assessed by measuring changes in intracellular cAMP levels relative to basal levels. The Alphascreen cAMP functional assay measures agonist and antagonist activity of GPCRs by stimulating cells to either increase or decrease intracellular cAMP levels. The assay was performed using an Alphascreen cAMP kit according to the manufacturer's instructions. […]\n(§3) Detection of cAMP is based on the competition between intracellular cAMP and biotinylated cAMP linked streptavidin-coated donor beads for anti-cAMP conjugated acceptor beads. When the donor and acceptor beads are in close proximity visible light emitted at 520-620 nm is detected using the Envision multilabel plate reader. […]\n(§4) The assay performance was optimized by using cells at low passage number and at 70-90% confluence. […] The cell concentration was determined using a haemocytometer. […] Note that the cell number will influence the cAMP levels measured before (basal) and after adenylyl cyclase activation. […]"}, "[6]": {"test_system": "cGMP formation in HEK-MOP cells", "experiment": "cGMP levels in MOP-transfected HEK cells (AlphaScreen)", "format": "cell-based", "protocol": "For assessment of cGMP levels in MOP-transfected HEK cells, the methods used were similar to those described in Example 6 with the exception that forskolin was omitted from the incubations. cGMP levels were quantified using AlphaScreen detection kits according to the manufacturer's instructions. Briefly, 5 μL aliquots of the cell suspension were added to individual wells containing 5 μL aliquots of test or control article solutions at the concentration of interest in triplicates in 384-well plates and incubated for 30 min at 37° C. cGMP standard solutions were serially diluted in stimulation buffer to give concentrations in the range of 5×10^−10-5×10^−6 M and were added at 10 μL/well. After cells were lysed with lysis buffer, 5 μL aliquots of acceptor bead mix (10 μl/mL of acceptor beads and 1/3000 anti-cGMP antibody for cGMP detection in lysis buffer) were added to each well. After plates were incubated in the dark at room temperature for 60 min, 5 μL aliquots of donor bead mix (10 μL/mL of donor beads and 0.3 nM biotinylated cGMP in lysis buffer) were added per well and plates were incubated for 16 h in the dark at room temperature. […] was measured using an Envision Multilabel Plate Reader (PerkinElmer Life Sciences)."}, "[7]": {"molecular_target": "δ-opioid receptors (DOP receptors) (Mus musculus, UniProt P32300)", "sequence (P32300 whole entry)": "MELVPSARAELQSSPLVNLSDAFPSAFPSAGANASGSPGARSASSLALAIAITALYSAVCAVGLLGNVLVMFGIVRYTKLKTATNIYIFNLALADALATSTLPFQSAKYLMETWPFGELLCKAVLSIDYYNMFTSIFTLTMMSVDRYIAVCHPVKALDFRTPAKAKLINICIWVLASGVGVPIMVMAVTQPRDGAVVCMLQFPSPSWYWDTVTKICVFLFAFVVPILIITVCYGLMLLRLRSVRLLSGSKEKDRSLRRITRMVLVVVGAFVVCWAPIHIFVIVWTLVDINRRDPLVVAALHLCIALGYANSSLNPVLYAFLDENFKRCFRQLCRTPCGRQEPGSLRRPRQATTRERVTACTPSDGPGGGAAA", "experiment": "Forskolin-stimulated cAMP responses in DOP-transfected HEK293 cells", "settings": "DOP-transfected HEK293, entire concentration range tested", "quoted_text": "as §1, §2, §3, §4"}, "[8]": {"experiment": "In vitro NO release (Total NOx, modified Griess reagent assay)", "protocol": "Briefly, HEK-MOP cells were seeded at 1×10^5 cells/mL and grown in 10 cm plates to 90% confluence. Four hours prior to experimentation, cell medium was replaced with phenol red-free DMEM. […] Following removal of each supernatant sample, it was replaced with 500 μL of phenol red-free DMEM. Samples were immediately placed on ice until NOx concentrations were quantified.\nSample aliquots (100 μL) were added to 96-well plates in duplicates. Nitrate was first converted to nitrite to determine total NOx concentrations with the addition of 100 μL aliquots of vanadium (III) chloride in 1M HCl (800 mg/100 mL) per well, followed by 100 μL aliquots of modified Griess reagent which converted nitrite to a deep purple azo derivative for spectrophotometric quantification at 560 nm using an Envision Multilabel Plate Reader (PerkinElmer Life Sciences). […] Total NOx and nitrite concentration was determined through inverse prediction against the nitrite standard curve."}, "[9]": {"settings": "STZ-diabetic rats, second bolus Compound 1 800 pmol/kg after 2-day washout"}, "[10]": {"settings": "naïve STZ-diabetic rats, first s.c. bolus"}, "[11]": {"settings": "10 wks post-STZ, Compound 1 s.c. (FIG. 3B)"}, "[12]": {"settings": "14 and 24 wks post-STZ, Compound 1 80 and 800 pmol/kg s.c."}},
  "note": "Several values for one entry are separate records, joined by “and”; a condition that tells them apart may be missing. Identical values can stand only once. Entries after “also recorded” stand apart in the source; their conditions may differ.",
  "data": [
    {"smiles": "Cc1c(C=O)no[n+]1[O-]", "note": "[Compound 1, 4-formyl-3-methyl-1,2,5-oxadiazole-2-oxide]", "values": [
      {"measurement": "tolerance after 7-day s.c. infusion", "setting": "[1]; STZ-diabetic rats", "result": "completely tolerant"},
      {"measurement": "anti-allodynia after second bolus (tolerance status)", "setting": "[1]; STZ-diabetic rats, after 2-day washout, morphine 10.5 μmol/kg, Compound 1 800 pmol/kg", "result": "significant reversal of tolerance"},
      {"measurement": "mean duration of action", "setting": "[1]; [9]", "result": "2 to 3", "unit": "h"},
      {"measurement": "time of peak anti-allodynia post-dosing", "setting": "[1]; [9]", "result": "~1", "unit": "h"},
      {"measurement": "mean duration of action", "setting": "[1]; [10]", "result": "~4", "unit": "h"},
      {"measurement": "time of peak anti-allodynia post-dosing", "setting": "[1]; [10]", "result": 1, "unit": "h"},
      {"measurement": "mean (±SEM) peak PWT", "setting": "[1]; naïve STZ-diabetic rats, Compound 1 800 pmol/kg, morphine 10.4 μmol/kg s.c. bolus", "result": "11.6 (±0.6) g"},
      {"measurement": "relief of mechanical allodynia at time of peak effect", "setting": "[2]; 10 wks post-STZ, Compound 1 8 fmol/kg s.c.", "result": "complete relief of mechanical allodynia"},
      {"measurement": "mean duration of action", "setting": "[2]; [11]", "result": "> 3", "unit": "h"},
      {"measurement": "peak anti-allodynic response (PWT)", "setting": "[2]; [11]", "result": "10.6 ± 0.5", "unit": "g"},
      {"measurement": "time of peak anti-allodynic response post-dosing", "setting": "[2]; [11]", "result": "~75", "unit": "min"},
      {"measurement": "alleviation of mechanical allodynia at time of peak response", "setting": "[2]; [12]", "result": "fully alleviated"},
      {"measurement": "duration of action", "setting": "[2]; [12]", "result": "≥ 3", "unit": "h"},
      {"measurement": "anti-allodynic effect of doses used at week 10", "setting": "[2]; 14 weeks post-STZ, Compound 1 fmol/kg doses", "result": "no longer effective"},
      {"measurement": "anti-allodynia in the hindpaws of STZ-diabetic rats", "setting": "[2]; single s.c. bolus at 10, 14, 24 wks post-STZ", "result": "dose-dependent anti-allodynia/antinociception"},
      {"measurement": "effect of naloxone pre-incubation on inhibition of forskolin-stimulated cAMP formation", "setting": "[3]", "result": "not by naloxone"},
      {"measurement": "inhibition of forskolin-stimulated cAMP formation", "setting": "[3]; MOP-transfected HEK293, mM, pM and aM concentrations", "result": "inhibited forskolin-stimulated cAMP formation"},
      {"measurement": "effect of ODQ pre-incubation on modulation of forskolin-stimulated cAMP formation", "setting": "[3]; ODQ 10 μM", "result": "did not significantly attenuate"},
      {"measurement": "effect of pertussis toxin pre-incubation on inhibition of forskolin-stimulated cAMP formation", "setting": "[3]; PTX 100 ng/mL 16 h, Compound 1 1 aM, morphine 1 μM", "result": "abolished by pre-incubation with pertussis toxin"},
      {"measurement": "effect of lipid raft/caveolae depletion on cAMP effects", "setting": "[4]", "result": "inhibited the effects of Compound 1; also recorded: sensitive to removal of lipid rafts/caveolae"},
      {"measurement": "inhibition of forskolin-stimulated cAMP formation", "setting": "[5]", "result": "did not appear to inhibit"},
      {"measurement": "cGMP Activity (% of basal cGMP response)", "setting": "[6]; Compound 1, 1 mM", "result": "159 + 20%"},
      {"measurement": "cGMP Activity (% of basal cGMP response)", "setting": "[6]; Compound 1, 1 mM + L-Cysteine 5 mM", "result": "185 + 34%"},
      {"measurement": "fold increase in cGMP activity with L-cysteine", "setting": "[6]; Compound 1, 1 mM + L-Cysteine 5 mM vs alone", "result": "(1.2 fold increase)"},
      {"measurement": "stimulation of cGMP formation", "setting": "[6]; HEK-MOP cells, presence and absence of L-cysteine (5 mM)", "result": "comparatively weak stimulation of cGMP formation"},
      {"measurement": "inhibition of forskolin-stimulated cAMP formation", "setting": "[7]", "result": "did not appear to inhibit"},
      {"measurement": "Release of NO (Total NOx %)", "setting": "[8]; Compound 1, 1 mM + L-Cysteine 5 mM, 6-h (b277 prints 50 mM)", "result": "2.7±0.3% and 2.7 + 0.3%"},
      {"measurement": "Release of NO (Total NOx %)", "setting": "[8]; Compound 1, 1 mM, 6-h study period", "result": "1.8% and 1.8±0.3%"},
      {"measurement": "1 Hour Total NOx", "setting": "[8]; NOx analysis at 1 hour, assay of Example 9", "result": "2.08 µM and 2.19 µM"},
      {"measurement": "6 Hours Total NOx", "setting": "[8]; NOx analysis at 6 hours, assay of Example 9", "result": 2.52, "unit": "µM"}
    ]}
  ]
}
